Measured values published in patent US20230348424A1, “HETEROCYCLIC COMPOUNDS AND METHODS OF USE” (Schrödinger, Inc., priority 2022, published 2023).

What was measured:
[1] = molecular target: human SOS1 (Homo sapiens (Human), UniProt Q07889); assay: Surface Plasmon Resonance (SPR) SOS1 Binding Assay; settings: biotinylated SOS1 (res. 564-1049), Biacore 8K, 25° C., kinetic or steady state fit, 1:1 binding; read-out: hSOS1 KD
Method: Binding to SOS1 was measured using a SPR assay with purified recombinant human SOS1 substrate (res. 564-1049 with N-terminal Avi tag; purified and biotinylated based on Hillig, et al., Proc Natl Acad Sci USA (2019); 116(7):2551-2560). SPR measurements were performed on a Biacore 8K SPR instrument (GE Healthcare, Sweden). Assays were performed at 25° C. using Series S SA sensor chips pre-coated with streptavidin (GE Healthcare, Cat. BR100531). Biotinylated SOS1 diluted in sample buffer (20 mM Tris HCI, 150 mM NaCl, 1 mM DTT, 0.05% TWEEN 20, 1 mM MgCh, pH 8.0) was captured to one flow cell of the chip to about 3,000 resonance units (RU) using sample buffer supplemented with 5% DMSO as a running buffer. Serial dilutions of the assayed compounds in the running buffer at 100, 50 or 0.5 µM were injected for 60 s at a flow rate of 30 µL/min and association phases were recorded. Dissociation of the samples was monitored for 600 s. Data processing was performed using Biacore Insight Software (Biacore, GE Healthcare). Sensorgrams recorded on a SA flow cell without captured protein were subtracted from sensorgrams recorded on the SOS1 surface. Blank injections of running buffer were used for double referencing and solvent correction was applied to all sample sensorgrams to correct for buffer mismatches. KDS were estimated using a kinetic or steady state, where applicable, fitting model describing a reversible equilibrium with 1:1 binding between SOS1 and the compound.

[2] = molecular target: SOS1:KRAS (G12C) interaction (Homo sapiens (Human), UniProt Q07889); assay: SOS1 KRas(G12C) FRET Assay; assay type: binding; settings: 0.5 nM His10-SOS1 (res. 564-1049), 2.5 nM GST-KRAS G12C (res. 1-169), 2 hrs at RT
SOS1:KRAS (G12C) interaction, sequence (Q07889 564-1049, stated change not applied): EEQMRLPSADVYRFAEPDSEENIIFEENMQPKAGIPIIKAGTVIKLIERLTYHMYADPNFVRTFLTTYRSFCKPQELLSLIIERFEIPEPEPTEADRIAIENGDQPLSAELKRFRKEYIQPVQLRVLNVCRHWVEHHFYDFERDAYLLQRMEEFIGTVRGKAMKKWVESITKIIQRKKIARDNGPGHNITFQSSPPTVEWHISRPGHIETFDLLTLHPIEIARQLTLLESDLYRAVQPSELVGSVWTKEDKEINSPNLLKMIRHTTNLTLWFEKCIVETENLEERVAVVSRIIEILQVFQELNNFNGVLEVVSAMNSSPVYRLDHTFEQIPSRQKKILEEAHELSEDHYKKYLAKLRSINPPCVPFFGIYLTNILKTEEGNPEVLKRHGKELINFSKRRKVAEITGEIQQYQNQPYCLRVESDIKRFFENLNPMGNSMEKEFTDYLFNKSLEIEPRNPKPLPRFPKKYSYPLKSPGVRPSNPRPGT
Procedure, shortened: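 GST-KRAS G12C (res. 1-169) at 2.5 nM and His10-SOS1 (res. 564-1049) at 0.5 nM, final, in PBS with 0.1% BSA, 5 mM MgCl2, 100 mM KF, 5 mM DTT and 0.5% DMSO. After 2 h at RT, FRET read at 665/615 nm and normalized to DMSO and no-SOS1 controls. IC50 by non-linear regression.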

human SOS1, sequence (Q07889 564-1049): as the sequence (Q07889 564-1049, stated change not applied) above

Row | Structure (SMILES) | Kd [1] [nM] | IC50 [2] [nM]
1 | C[C@@H](NC(=O)c1cn(C2(C(F)F)CC2)c(=O)cc1N[C@@H]1CCN(C)C[C@H]1F)c1cccc(C(F)F)c1F (single isomer, unassigned) [Example 65] | 48 | 50.4
2 | C[C@@H](NC(=O)c1cn(C2(C(F)F)CC2)c(=O)cc1N[C@H]1CCN(C)C[C@@H]1F)c1cccc(C(F)F)c1F (single isomer, unassigned) [Example 66] | 34 | 48.6
3 | C[C@@H](NC(=O)c1cn(C2(C(F)F)CC2)c(=O)cc1N[C@@H]1CCNC[C@@H]1F)c1cccc(C(F)F)c1F (single isomer, unassigned) [Example 69] | 13 | 17.4
4 | C[C@@H](NC(=O)c1cn(C2(C(F)F)CC2)c(=O)cc1N[C@H]1CCNC[C@H]1F)c1cccc(C(F)F)c1F (single isomer, unassigned) [Example 70] | 4 | 12.7
5 | C[C@@H](NC(=O)c1cn([C@@H]2C[C@H]2C2CC2)c(=O)cc1NC1CCN(C)CC1)c1cccc(C(F)F)c1F (single isomer, unassigned) [Example 74] | 2 | 4.6
6 | C[C@@H](NC(=O)c1cn([C@H]2C[C@@H]2C(F)(F)F)c(=O)cc1N[C@H]1[C@@H]2CN(C)C[C@@H]21)c1cccc(C(F)F)c1F (single isomer, unassigned) [Example 111] | 17 | 26.2
7 | C[C@@H](NC(=O)c1cn(C2(C(F)F)CC2)c(=O)cc1N[C@@H]1C[C@@H]2CN(C)C[C@@H]2C1)c1cccc(C(F)F)c1F (single isomer, unassigned) [Example 124] | 13 | 31.4
8 | C[C@@H](NC(=O)c1cn(C23CC(C2)C3)c(=O)cc1N[C@@H]1[C@@H]2CC[C@H]1CN(C)C2)c1cccc(C(F)F)c1F (single isomer, unassigned) [Example 134] | 5 | 9
9 | C[C@@H](NC(=O)c1cn(C23CC(C2)C3)c(=O)cc1N[C@H]1[C@@H]2CC[C@H]1CN(C)C2)c1cccc(C(F)F)c1F (single isomer, unassigned) [Example 135] | 31 | 52.1
10 | C[C@@H](NC(=O)c1cn(C2(C(F)(F)F)CC2)c(=O)cc1N[C@@H]1[C@@H]2CC[C@H]1CN(C)C2)c1cccc(C(F)F)c1F (single isomer, unassigned) [Example 138] | 12 | 19.7
11 | C[C@@H](NC(=O)c1cn(C2(C(F)(F)F)CC2)c(=O)cc1N[C@H]1[C@@H]2CC[C@H]1CN(C)C2)c1cccc(C(F)F)c1F (single isomer, unassigned) [Example 139] | 25 | 49.7
12 | C[C@@H](NC(=O)c1cn(C2CC2)c(=O)cc1N[C@@H]1[C@@H]2CC[C@H]1CN(C)C2)c1cccc(C(F)F)c1F (single isomer, unassigned) [Example 140] | 7 | 15.2
13 | C[C@@H](NC(=O)c1cn(C2CC2)c(=O)cc1N[C@H]1[C@@H]2CC[C@H]1CN(C)C2)c1cccc(C(F)F)c1F (single isomer, unassigned) [Example 141] | 33 | 62.8
14 | C[C@@H](NC(=O)c1cn([C@H]2CCC2(F)F)c(=O)cc1N[C@H]1[C@@H]2CN(C)C[C@@H]21)c1cccc(C(F)(F)F)c1F (single isomer, unassigned) [Example 144] | 3 | 4
15 | C[C@@H](NC(=O)c1cn([C@@H]2CCC2(F)F)c(=O)cc1N[C@H]1[C@@H]2CN(C)C[C@@H]21)c1cccc(C(F)(F)F)c1F (single isomer, unassigned) [Example 145] | 37 | 35.2
16 | C[C@@H](NC(=O)c1cn([C@H]2CCC2(F)F)c(=O)cc1N[C@H]1[C@@H]2CN(C)C[C@@H]21)c1cccc(C(C)(F)F)c1F (single isomer, unassigned) [Example 148] | 6 | 7.4
17 | C[C@@H](NC(=O)c1cn([C@@H]2CCC2(F)F)c(=O)cc1N[C@H]1[C@@H]2CN(C)C[C@@H]21)c1cccc(C(C)(F)F)c1F (single isomer, unassigned) [Example 149] | 56 | 61.6
18 | Cc1c([C@@H](C)NC(=O)c2cn(C3CCOCC3)c(=O)cc2NCCN(C)C)cccc1C(F)(F)F [Example 2, (R)-4-((2-(dimethylamino)ethyl)amino)-N-(1-(2-methyl-3-(trifluoromethyl)phenyl)ethyl)-6-oxo-1-(tetrahydro-2H-pyran-4-yl)-1,6-dihydropyridine-3-carboxamide] | 27 | 59.6
19 | Cc1c([C@@H](C)NC(=O)c2cn(C3CCOCC3)c(=O)cc2N[C@@H]2CCN(C)C2)cccc1C(F)(F)F [Example 3, N-((R)-1-(2-methyl-3-(trifluoromethyl)phenyl)ethyl)-4-(((R)-1-methylpyrrolidin-3-yl)amino)-6-oxo-1-(tetrahydro-2H-pyran-4-yl)-1,6-dihydropyridine-3-carboxamide] | 16 | 41.2
20 | Cc1c([C@@H](C)NC(=O)c2cn(C3CCOCC3)c(=O)cc2N[C@H]2CCN(C)C2)cccc1C(F)(F)F [Example 4, N-((R)-1-(2-methyl-3-(trifluoromethyl)phenyl)ethyl)-4-(((S)-1-methylpyrrolidin-3-yl)amino)-6-oxo-1-(tetrahydro-2H-pyran-4-yl)-1,6-dihydropyridine-3-carboxamide] | 16 | 45.9

Next, values leading:

Row | Kd [1] [nM] | IC50 [2] [nM] | Structure (SMILES)
21 | 3 | 9.7 | C[C@@H](NC(=O)c1cn([C@H]2C[C@@H]2C2CC2)c(=O)cc1N[C@H]1[C@@H]2CN(C)C[C@@H]21)c1cccc(C(F)F)c1F (single isomer, unassigned) [Example 72]
22 | 9 | 16.1 | C[C@@H](NC(=O)c1cn([C@@H]2CC2(F)F)c(=O)cc1N[C@H]1[C@@H]2CN(C)C[C@@H]21)c1cccc(C(F)F)c1F (single isomer, unassigned) [Example 92]
23 | 7 | 13.4 | C[C@@H](NC(=O)c1cn([C@@H]2CC2(C)C)c(=O)cc1N[C@H]1[C@@H]2CN(C)C[C@@H]21)c1cccc(C(F)F)c1F (single isomer, unassigned) [Example 94]
24 | 3 | 5.7 | C[C@@H](NC(=O)c1cn([C@@H]2CCC2(F)F)c(=O)cc1N[C@H]1[C@@H]2CN(C)C[C@@H]21)c1cccc(C(F)F)c1F (single isomer, unassigned) [Example 103]
25 | 24 | 45.4 | C[C@@H](NC(=O)c1cn([C@H]2CCC2(F)F)c(=O)cc1N[C@H]1[C@@H]2CN(C)C[C@@H]21)c1cccc(C(F)F)c1F (single isomer, unassigned) [Example 104]
26 | 2 | 3.6 | C[C@@H]1[C@@H](n2cc(C(=O)N[C@H](C)c3cccc(C(F)F)c3F)c(N[C@H]3[C@@H]4CN(C)C[C@@H]43)cc2=O)C1(F)F (single isomer, unassigned) [Example 109]
27 | 12 | 23.8 | C[C@@H](NC(=O)c1cn([C@H]2[C@H](C)C2(F)F)c(=O)cc1N[C@H]1[C@@H]2CN(C)C[C@@H]21)c1cccc(C(F)F)c1F (single isomer, unassigned) [Example 110]
28 | 6 | 13.6 | C[C@@H](NC(=O)c1cn([C@@H]2C[C@H]2C(F)(F)F)c(=O)cc1N[C@H]1[C@@H]2CN(C)C[C@@H]21)c1cccc(C(F)F)c1F (single isomer, unassigned) [Example 112]
29 | 6 | 14.1 | C[C@@H](NC(=O)c1cn([C@H]2CC23CC3)c(=O)cc1N[C@H]1[C@@H]2CN(C)C[C@@H]21)c1cccc(C(F)F)c1F (single isomer, unassigned) [Example 115]
30 | 11 | 26.7 | C[C@@H](NC(=O)c1cn([C@@H]2CC23CC3)c(=O)cc1N[C@H]1[C@@H]2CN(C)C[C@@H]21)c1cccc(C(F)F)c1F (single isomer, unassigned) [Example 116]
31 | 6 | 8.5 | C[C@@H](NC(=O)c1cn([C@H]2CC23CCC3)c(=O)cc1N[C@H]1[C@@H]2CN(C)C[C@@H]21)c1cccc(C(F)F)c1F (single isomer, unassigned) [Example 117]
32 | 11 | 16.6 | C[C@@H](NC(=O)c1cn([C@@H]2CC23CCC3)c(=O)cc1N[C@H]1[C@@H]2CN(C)C[C@@H]21)c1cccc(C(F)F)c1F (single isomer, unassigned) [Example 118]
33 | 12 | 47.3 | C[C@@H](NC(=O)c1cn([C@@]2(C)CCOC2)c(=O)cc1N[C@H]1[C@@H]2CN(C)C[C@@H]21)c1cccc(C(F)F)c1F (single isomer, unassigned) [Example 151]
